Assay [1] concerns the target Glycogen synthase kinase-3 beta (Homo sapiens, UniProt P49841). As to the kind of experiment: Inhibitory concentration for Glycogen synthase kinase-3 beta was determined in the presence of 10 um ATP (Km 10 uM).
Assay [2] concerns HCT-116. As to the kind of experiment: Inhibitor concentration to reduce HCT 116 cell line (tumor) growth by 50% over 72 h. Type of assay: functional. The following applies: Homo sapiens, HCT-116, 72 h.
Assay [3] concerns the target Cyclin-dependent kinase 2 (Homo sapiens, UniProt P24941). As to the kind of experiment: Inhibitory concentration for Cyclin-dependent kinase 2 was determined in the presence of 100 um ATP (Km 50 uM).

Chain of Glycogen synthase kinase-3 beta (P49841 whole entry): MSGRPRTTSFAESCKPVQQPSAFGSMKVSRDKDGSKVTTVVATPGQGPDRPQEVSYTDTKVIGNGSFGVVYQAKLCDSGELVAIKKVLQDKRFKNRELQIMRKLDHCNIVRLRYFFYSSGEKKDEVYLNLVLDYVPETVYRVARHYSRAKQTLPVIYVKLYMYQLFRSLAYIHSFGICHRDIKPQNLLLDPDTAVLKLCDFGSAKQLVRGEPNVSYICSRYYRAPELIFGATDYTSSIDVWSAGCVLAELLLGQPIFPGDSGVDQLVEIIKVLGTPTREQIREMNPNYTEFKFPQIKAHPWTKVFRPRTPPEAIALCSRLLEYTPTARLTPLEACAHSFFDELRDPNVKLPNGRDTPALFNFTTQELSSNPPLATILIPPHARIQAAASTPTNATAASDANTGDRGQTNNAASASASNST

For orientation: IC50 means the concentration needed to halve the response being measured. For the compound `CN(C)S(=O)(=O)c1ccc(Nc2cc(N[C@H]3CC[C@H](N)CC3)nc3c(C4CCCC4)cnn23)cc1`, the IC50 in assay [1] came to 22 µM.
Usually GI50 stands for the concentration giving 50% growth inhibition. The low end stands for more potent growth inhibition, the high end for less potent growth inhibition. On to `N[C@H]1CC[C@H](Nc2cc(Nc3ccc(S(=O)(=O)c4cccs4)cc3)n3ncc(Cl)c3n2)CC1`, for which halving of growth in assay [2] (GI50) required 0.12 µM. Besides, the half-maximal inhibitory concentration (IC50) in assay [3] worked out at 0.011 µM.
Regarding `CC(C)COc1cc(Nc2ccc(S(=O)(=O)N(C)C)cc2)n2ncc(C(C)C)c2n1`, the figures for the IC50 in assay [1] and in assay [3] were 50 µM and 1.2 µM, respectively. Further, in assay [2], the concentration for 50% growth inhibition (GI50) came to 7.6 µM.
On the same counts, the results for `N[C@H]1CC[C@H](Nc2cc(Nc3ccc(S(=O)(=O)c4ccccc4)cc3)n3ncc(Br)c3n2)CC1` are 5.3 µM, 0.016 µM and 0.08 µM.
In the same order, the values of `CC(C)c1cnn2c(Nc3ccc(S(=O)(=O)N(C)C)cc3)cc(NC3CCCC(N)C3)nc12` (stereo not drawn) are greater than 50 µM, 2.1 µM and 3.4 µM.
For the compound `CC(C)COc1cc(Nc2ccc(S(C)(=O)=O)cc2)n2ncc(C(C)C)c2n1`, the IC50 in assay [1] turned out to be 12 µM. Further, it took 7.8 µM to inhibit growth in assay [2] by half (GI50).
On to `CN(C)S(=O)(=O)c1ccc(Nc2cc(N[C@H]3CC[C@H](N)CC3)nc3c(Cl)cnn23)cc1`, for which the IC50 was 5.1 µM in assay [1] and 0.008 µM in assay [3]. The same compound returned a GI50 in assay [2] of 2.7 µM.
Take `CC(C)c1cnn2c(Nc3ccc(S(=O)(=O)N(C)C)cc3)cc(O[C@H]3CC[C@H](N)CC3)nc12`: the IC50 in assay [1] turned out to be 28 µM. The same compound came in with a GI50 in assay [2] of 0.71 µM.
In the same order, the values of `CN(C)S(=O)(=O)c1ccc(Nc2cc(N[C@H]3CC[C@H](N)CC3)nc3c(C#N)cnn23)cc1` are 0.46 µM and 11 µM.
In the case of `CC(C)c1cnn2c(Nc3ccc(S(=O)(=O)N(C)C)cc3)cc(N[C@H]3CC[C@H](N)CC3)nc12`, the IC50 in assay [1] is 40 µM. The same compound gave a GI50 in assay [2] of 0.58 µM.
`CCN(CC)[C@H]1CC[C@H](Nc2cc(Nc3ccc(S(=O)(=O)N(C)C)cc3)n3ncc(C(C)C)c3n2)CC1`: the 50% inhibitory concentration (IC50) in assay [1] was greater than 50 µM. In assay [2], this compound yielded a GI50 of 16 µM.
As for `CN(C)S(=O)(=O)c1ccc(Nc2cc(N[C@H]3CC[C@H](N)CC3)nc3c(Br)cnn23)cc1`, the results for the IC50 in assay [1] and in assay [3] were 3.4 µM and 0.01 µM, respectively. In assay [2], growth was halved (GI50) at 0.91 µM.
Regarding `CN(C)S(=O)(=O)c1ccc(Nc2cc(N[C@H]3CC[C@H](N)CC3)nc3c(Br)cnn23)cc1Cl`, the IC50 in assay [1] was 8.7 µM. Besides, in assay [2], halving of growth (GI50) required 0.34 µM.
Regarding `CCN[C@H]1CC[C@H](Nc2cc(Nc3ccc(S(=O)(=O)N(C)C)cc3)n3ncc(C(C)C)c3n2)CC1`, the IC50 was greater than 50 µM in assay [1] and 0.061 µM in assay [3]. In assay [2], this compound returned a GI50 of 1.2 µM.

Source of the values: ChEMBL document CHEMBL1141971, “Structure-guided design of pyrazolo[1,5-a]pyrimidines as inhibitors of human cyclin-dependent kinase 2” (Bioorg Med Chem Lett, 2005).
